From patent US10780074B2, “Compounds and uses thereof” (Sunovion Pharmaceuticals Inc., priority 2017, dated 2020)
Counter-ions that a name gives are not always drawn.

Tested on: behaviors of compound-treated mice
Test: Neuropharmacological Assay (SmartCube)
Assay type: in vivo
Conditions: for minimal effective dose: Mus musculus, ip, 0.25 h, dose having 50% or more total activity in SmartCube, i.p., read-out: MED (minimal effective dose); for AD: ADHD (probability that activity matches class) / AG: analgesic (probability that activity matches class) / AX: anxiolytic (probability that activity matches class) / CE: cognitive enhancer (probability that activity matches class) / DP: anti-depressant (probability that activity matches class) / MS: mood stabilizer (probability that activity matches class) / PS: anti-psychotic (probability that activity matches class) / SD: sedative hypnotic (probability that activity matches class) / UN: uncharacterized CNS activity (probability that activity matches class): i.p. 15 min before behavioral test, most efficacious dose(s) of 3 doses
Summary of the method: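 Mice dosed i.p. 15 min before testing, with compound in N-methyl-2-pyrrolidone/PEG/propylene glycol, were video-recorded and algorithmically compared with reference-drug behavioral signatures. This gave class-match probabilities (antidepressant, anxiolytic, etc.) at the most efficacious of 3 doses. MED was defined as the dose with ≥50% total activity, usually tested across 0.3–30 mpk.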

## CNC[C@@H]1OCCc2c(-c3ccncc3)cccc21 [Compound 17, (R)—N-Methyl(5-(pyridin-4-yl)isochroman-1-yl)methanamine dihydrochloride salt]
  minimal effective dose: ≤ 3 mg/kg
  AD: ADHD (probability that activity matches class): ++ (5% ≤ ++ <25%)
  AG: analgesic (probability that activity matches class): + (LOQ ≤ + <5%)
  AX: anxiolytic (probability that activity matches class): + (LOQ ≤ + <5%)
  CE: cognitive enhancer (probability that activity matches class): + (LOQ ≤ + <5%)
  DP: anti-depressant (probability that activity matches class): ++++ (50% ≤ ++++)
  MS: mood stabilizer (probability that activity matches class): + (LOQ ≤ + <5%)
  PS: anti-psychotic (probability that activity matches class): + (LOQ ≤ + <5%)
  SD: sedative hypnotic (probability that activity matches class): ++ (5% ≤ ++ <25%)
  UN: uncharacterized CNS activity (probability that activity matches class): ++ (5% ≤ ++ <25%)

## CNC[C@H]1OCCc2c(-c3ccncc3)cccc21 [Compound 18, (S)—N-Methyl(5-(pyridin-4-yl)isochroman-1-yl)methanamine dihydrochloride salt]
  minimal effective dose: 10 to 30 mg/kg
  AD: ADHD (probability that activity matches class): + (LOQ ≤ + <5%)
  AG: analgesic (probability that activity matches class): + (LOQ ≤ + <5%)
  AX: anxiolytic (probability that activity matches class): + (LOQ ≤ + <5%)
  CE: cognitive enhancer (probability that activity matches class): + (LOQ ≤ + <5%)
  DP: anti-depressant (probability that activity matches class): ++++ (50% ≤ ++++)
  MS: mood stabilizer (probability that activity matches class): + (LOQ ≤ + <5%)
  PS: anti-psychotic (probability that activity matches class): + (LOQ ≤ + <5%)
  SD: sedative hypnotic (probability that activity matches class): + (LOQ ≤ + <5%)
  UN: uncharacterized CNS activity (probability that activity matches class): + (LOQ ≤ + <5%)

## NC[C@@H]1OCCc2c(-c3ccncc3)cccc21 [Compound 19, (R)-(5-(Pyridin-4-yl)isochroman-1-yl)methanamine hydrochloride salt]
  minimal effective dose: > 30 mg/kg
  AD: ADHD (probability that activity matches class): + (LOQ ≤ + <5%)
  AG: analgesic (probability that activity matches class): ++ (5% ≤ ++ <25%)
  AX: anxiolytic (probability that activity matches class): ++ (5% ≤ ++ <25%)
  CE: cognitive enhancer (probability that activity matches class): ++ (5% ≤ ++ <25%)
  DP: anti-depressant (probability that activity matches class): ++ (5% ≤ ++ <25%)
  MS: mood stabilizer (probability that activity matches class): + (LOQ ≤ + <5%)
  PS: anti-psychotic (probability that activity matches class): + (LOQ ≤ + <5%)
  SD: sedative hypnotic (probability that activity matches class): + (LOQ ≤ + <5%)
  UN: uncharacterized CNS activity (probability that activity matches class): + (LOQ ≤ + <5%)

## NC[C@H]1OCCc2c(-c3ccncc3)cccc21 [Compound 20, (S)-(5-(Pyridin-4-yl)isochroman-1-yl)methanamine hydrochloride salt]
  minimal effective dose: ≤ 3 mg/kg
  AD: ADHD (probability that activity matches class): ++ (5% ≤ ++ <25%)
  AG: analgesic (probability that activity matches class): ++ (5% ≤ ++ <25%)
  AX: anxiolytic (probability that activity matches class): ++ (5% ≤ ++ <25%)
  CE: cognitive enhancer (probability that activity matches class): + (LOQ ≤ + <5%)
  DP: anti-depressant (probability that activity matches class): ++++ (50% ≤ ++++)
  MS: mood stabilizer (probability that activity matches class): + (LOQ ≤ + <5%)
  PS: anti-psychotic (probability that activity matches class): + (LOQ ≤ + <5%)
  SD: sedative hypnotic (probability that activity matches class): + (LOQ ≤ + <5%)
  UN: uncharacterized CNS activity (probability that activity matches class): ++++ (50% ≤ ++++)

## CNC[C@@H]1OCCc2cc(-c3ncccn3)ccc21 [Compound 21, (R)—N-Methyl-1-(6-(pyrimidin-2-yl)isochroman-1-yl)methanamine hydrochloride salt]
  minimal effective dose: 10 to 30 mg/kg
  AD: ADHD (probability that activity matches class): + (LOQ ≤ + <5%)
  AG: analgesic (probability that activity matches class): ++ (5% ≤ ++ <25%)
  AX: anxiolytic (probability that activity matches class): ++ (5% ≤ ++ <25%)
  CE: cognitive enhancer (probability that activity matches class): ++ (5% ≤ ++ <25%)
  DP: anti-depressant (probability that activity matches class): ++ (5% ≤ ++ <25%)
  MS: mood stabilizer (probability that activity matches class): + (LOQ ≤ + <5%)
  PS: anti-psychotic (probability that activity matches class): + (LOQ ≤ + <5%)
  SD: sedative hypnotic (probability that activity matches class): + (LOQ ≤ + <5%)
  UN: uncharacterized CNS activity (probability that activity matches class): + (LOQ ≤ + <5%)

## CNC[C@H]1OCCc2cc(-c3ncccn3)ccc21 [Compound 22, (S)—N-Methyl-1-(6-(pyrimidin-2-yl)isochroman-1-yl)methanamine hydrochloride salt]
  minimal effective dose: 10 to 30 mg/kg
  AD: ADHD (probability that activity matches class): + (LOQ ≤ + <5%)
  AG: analgesic (probability that activity matches class): ++ (5% ≤ ++ <25%)
  AX: anxiolytic (probability that activity matches class): ++ (5% ≤ ++ <25%)
  CE: cognitive enhancer (probability that activity matches class): ++ (5% ≤ ++ <25%)
  DP: anti-depressant (probability that activity matches class): ++ (5% ≤ ++ <25%)
  MS: mood stabilizer (probability that activity matches class): + (LOQ ≤ + <5%)
  PS: anti-psychotic (probability that activity matches class): + (LOQ ≤ + <5%)
  SD: sedative hypnotic (probability that activity matches class): + (LOQ ≤ + <5%)
  UN: uncharacterized CNS activity (probability that activity matches class): +++ (25% ≤ +++ <50%)

## CNC[C@H]1OCCc2c(-c3ncccn3)cccc21 [Compound 23, (S)—N-Methyl-1-(5-(pyrimidin-2-yl)isochroman-1-yl)methanamine hydrochloride salt]
  minimal effective dose: 10 to 30 mg/kg
  AD: ADHD (probability that activity matches class): ++ (5% ≤ ++ <25%)
  AG: analgesic (probability that activity matches class): ++ (5% ≤ ++ <25%)
  AX: anxiolytic (probability that activity matches class): ++ (5% ≤ ++ <25%)
  CE: cognitive enhancer (probability that activity matches class): + (LOQ ≤ + <5%)
  DP: anti-depressant (probability that activity matches class): ++++ (50% ≤ ++++)
  MS: mood stabilizer (probability that activity matches class): + (LOQ ≤ + <5%)
  PS: anti-psychotic (probability that activity matches class): + (LOQ ≤ + <5%)
  SD: sedative hypnotic (probability that activity matches class): + (LOQ ≤ + <5%)
  UN: uncharacterized CNS activity (probability that activity matches class): + (LOQ ≤ + <5%)

## CNC[C@@H]1OCCc2c(-c3ncccn3)cccc21 [Compound 24, (R)—N-Methyl-1-(5-(pyrimidin-2-yl)isochroman-1-yl)methanamine hydrochloride]
  minimal effective dose: > 30 mg/kg
  AD: ADHD (probability that activity matches class): + (LOQ ≤ + <5%)
  AG: analgesic (probability that activity matches class): + (LOQ ≤ + <5%)
  AX: anxiolytic (probability that activity matches class): ++ (5% ≤ ++ <25%)
  CE: cognitive enhancer (probability that activity matches class): + (LOQ ≤ + <5%)
  DP: anti-depressant (probability that activity matches class): + (LOQ ≤ + <5%)
  MS: mood stabilizer (probability that activity matches class): + (LOQ ≤ + <5%)
  PS: anti-psychotic (probability that activity matches class): + (LOQ ≤ + <5%)
  SD: sedative hypnotic (probability that activity matches class): + (LOQ ≤ + <5%)
  UN: uncharacterized CNS activity (probability that activity matches class): ++ (5% ≤ ++ <25%)

## CNC[C@@H]1OCc2c(-c3cccnc3)cccc21 [Compound 33, (R)—N-Methyl-1-(4-(pyridin-3-yl)-1,3-dihydroisobenzofuran-1-yl)methanamine hydrochloride salt]
  minimal effective dose: 10 to 30 mg/kg
  AD: ADHD (probability that activity matches class): + (LOQ ≤ + <5%)
  AG: analgesic (probability that activity matches class): + (LOQ ≤ + <5%)
  AX: anxiolytic (probability that activity matches class): ++ (5% ≤ ++ <25%)
  CE: cognitive enhancer (probability that activity matches class): + (LOQ ≤ + <5%)
  DP: anti-depressant (probability that activity matches class): ++++ (50% ≤ ++++)
  MS: mood stabilizer (probability that activity matches class): + (LOQ ≤ + <5%)
  PS: anti-psychotic (probability that activity matches class): + (LOQ ≤ + <5%)
  SD: sedative hypnotic (probability that activity matches class): + (LOQ ≤ + <5%)
  UN: uncharacterized CNS activity (probability that activity matches class): + (LOQ ≤ + <5%)

## CNC[C@H]1OCc2c(-c3cccnc3)cccc21 [Compound 34, (S)—N-Methyl-1-(4-(pyridin-3-yl)-1,3-dihydroisobenzofuran-1-yl)methanamine hydrochloride salt]
  minimal effective dose: ≤ 3 mg/kg
  AD: ADHD (probability that activity matches class): + (LOQ ≤ + <5%)
  AG: analgesic (probability that activity matches class): + (LOQ ≤ + <5%)
  AX: anxiolytic (probability that activity matches class): ++ (5% ≤ ++ <25%)
  CE: cognitive enhancer (probability that activity matches class): + (LOQ ≤ + <5%)
  DP: anti-depressant (probability that activity matches class): ++++ (50% ≤ ++++)
  MS: mood stabilizer (probability that activity matches class): ++ (5% ≤ ++ <25%)
  PS: anti-psychotic (probability that activity matches class): + (LOQ ≤ + <5%)
  SD: sedative hypnotic (probability that activity matches class): + (LOQ ≤ + <5%)
  UN: uncharacterized CNS activity (probability that activity matches class): + (LOQ ≤ + <5%)

## NC[C@@H]1OCc2c(-c3cccnc3)cccc21 [Compound 35, (R)-(4-(Pyridin-3-yl)-1,3-dihydroisobenzofuran-1-yl)methanamine hydrochloride]
  minimal effective dose: 3 to 10 mg/kg
  AD: ADHD (probability that activity matches class): ++ (5% ≤ ++ <25%)
  AG: analgesic (probability that activity matches class): + (LOQ ≤ + <5%)
  AX: anxiolytic (probability that activity matches class): ++ (5% ≤ ++ <25%)
  CE: cognitive enhancer (probability that activity matches class): + (LOQ ≤ + <5%)
  DP: anti-depressant (probability that activity matches class): ++++ (50% ≤ ++++)
  MS: mood stabilizer (probability that activity matches class): + (LOQ ≤ + <5%)
  PS: anti-psychotic (probability that activity matches class): + (LOQ ≤ + <5%)
  SD: sedative hypnotic (probability that activity matches class): + (LOQ ≤ + <5%)
  UN: uncharacterized CNS activity (probability that activity matches class): + (LOQ ≤ + <5%)

## NC[C@H]1OCc2c(-c3cccnc3)cccc21 [Compound 36, (S)-(4-(Pyridin-3-yl)-1,3-dihydroisobenzofuran-1-yl)methanamine hydrochloride]
  minimal effective dose: ≤ 3 mg/kg
  AD: ADHD (probability that activity matches class): ++ (5% ≤ ++ <25%)
  AG: analgesic (probability that activity matches class): + (LOQ ≤ + <5%)
  AX: anxiolytic (probability that activity matches class): + (LOQ ≤ + <5%)
  CE: cognitive enhancer (probability that activity matches class): ++ (5% ≤ ++ <25%)
  DP: anti-depressant (probability that activity matches class): ++++ (50% ≤ ++++)
  MS: mood stabilizer (probability that activity matches class): + (LOQ ≤ + <5%)
  PS: anti-psychotic (probability that activity matches class): + (LOQ ≤ + <5%)
  SD: sedative hypnotic (probability that activity matches class): + (LOQ ≤ + <5%)
  UN: uncharacterized CNS activity (probability that activity matches class): + (LOQ ≤ + <5%)
